Patent publication US20200199170A1, “COMPOUNDS HAVING ANTI-INFLAMMATORY AND ANTI-OXIDANT ACTIVITY” (UNIVERSITÀ DEGLI STUDI DI FERRARA, priority 2015, published 2020)

Legend:
[1] = test system: cell production of interleukin-1 (IL-1α) in human keratinocytes stimulated with TNF-α; assay: Anti-inflammatory activity: IL-1α production in keratinocytes stimulated with TNF-α; type: cell-based; conditions: human keratinocytes pretreated 24 hours with 10 μM solution, then TNF-α; negative control DMSO; FIG. 1A
Description: (§1) The cells (human keratinocytes acquired from Life Technologies) have been pretreated for 24 hours with 1A or 1B and subsequently stimulated with cytokines, otherwise referred to as Tumor Necrosis Factor, TNF-α, in order to mimic an inflammatory process.
TNF-α induces inflammation in the cells treated, that is to say, the cell production of interleukin-1 (IL-1α).

[2] = test system: IL-1α gene expression in human keratinocytes; assay: Real-time PCR quantification of gene expression in TNF-α stimulated keratinocytes; type: cell-based; conditions: keratinocytes pre-treated with compound, then TNF-α; FIG. 1B
Description: as §1
The cell response has also been set out by means of real-time PCR measurements, which are intended to quantify the gene expression (the production of IL-1α is an activity that is codified by specific genes). In FIG. 1B, the so-called “control” is the response of the non-stimulated cells (absence of inflammatory process), “TNF-α” is the response of the cells stimulated with cytokine, while “1A+TNF-α” and “1B+TNF-α” are the responses obtained with the cells pre-treated with 1A and 1B, respectively.

[3] = Photochemiluminescence antioxidant test (Photochem, luminol); conditions: superoxide radical, FIG. 2
Description: For the study of the antioxidant activity, use was made of a photochemiluminescence test that allows evaluating the antioxidant capacity of the tested molecules with respect to the superoxide radical (O2^−); the latter is photochemically generated by means of UV radiations. The marker used is luminol, a molecule that is capable of emitting chemiluminescence when it is oxidized by free radicals; such emission of light is then measured by means of a suitable instrument (Analityk Jena AG: Photochem®—Antioxidants and Free Radicals). The presence of antioxidant substances in the reaction admixture deactivates the radical species by inhibiting the emission of chemiluminescence. The analysis is very rapid and sensitive. […]
Since the antioxidant activity cannot be measured in absolute terms, the common practice is to compare the activity of a compound with that of molecules having an antioxidant capacity that is already known, such as, for example, tocopherol (otherwise known as vitamin E). By comparing the recorded values with the measurements relating to the standard reference molecules ([…]), the antioxidant capacity of the product being examined is obtained.

[4] = test system: neuronal cells; assay: Neuro-protective activity, MTT assay, glutamate-induced death; type: cell-based; conditions: FIG. 3; for neuro-protective activity on the death of neuronal cells caused by glutamate: MTT assay, pre-treatment before glutamate; for viability of the cells: neuronal cells, pre-treatment with compound then glutamate, MTT

Structure (SMILES) | cell production of IL-1α [1] | gene expression (real-time PCR) [2] | moles having the antioxidant activity of 1 mole of ascorbic acid [3] [mol] | neuro-protective activity on the death of neuronal cells caused by glutamate [4] | viability of the cells [4] [%]
Cc1ccc(O)c2c1CCC1C3CC[C@](O)(C(O)CO)[C@@]3(C)CC(=O)[C@@]21O (stereo partly shown) [1B] | comparable with that of the negative control | absence of gene expression | 1.18 | have a neuro-protective activity | ~80
Cc1ccc(O)c2c1CCC1C3CC[C@](O)(C(=O)CO)[C@@]3(C)CC(=O)[C@@]21O (stereo partly shown) [1A] | comparable with that of the negative control | absence of gene expression | 1.09 | have a neuro-protective activity | ~80
